Measurements as given in US20100129465A1, “Methods and Compositions Related to Acne Treatment” (priority 2008, published 2010).

Tested on: skin and eyes
Conditions: aqueous solution, pH=3.0

Compound: O=C(O)CO [glycolic acid]
- sting or burning when applied to freshly shaven skin: stings or burns
